The values that follow come from ChEMBL document CHEMBL4840321, “Limonoids with Diverse Oxidation Patterns of C-12 Indicating a Complete Ring C-seco Biogenetic Pathway from Munronia unifoliolata” (J Nat Prod, 2021).

Series [1] in a line: Anti-MDR activity in human MCF7-DOX cells assessed as reversal of cell resistance to doxorubicin by measuring reversal fold at 30 uM measured after 48 hrs by MTT assay. It is filed as functional.
In series [2] the test system is RAW264.7. As to the kind of experiment: Inhibition of NO production in LPS-stimulated mouse RAW264.7 cells. In kind it is functional, cell-based.
The nature of series [3]: Cytotoxicity against human MCF7-DOX cells measured after 48 hrs by MTT assay. In kind it is cell-based. Background: Tetrazolium dyes change colour on reduction, which living cells bring about.
Series [4] can be described thus: Anti-MDR activity in human MCF7-DOX cells assessed as reversal of cell resistance to doxorubicin by measuring reversal fold at 10 uM measured after 48 hrs by MTT assay. In kind it is functional.

Structures are written as SMILES. Activity calls are given as the source filed them. The calls are words filed in the database; no cut-off is given here.

Turning to `C/C=C(\C)C(=O)O[C@H]1C[C@@H](OC(C)=O)[C@@]2(C)CO[C@H]3[C@@H](O)[C@@]4(C)C5=C(C)[C@H](c6ccoc6)C[C@@H]5OCC[C@@H]4[C@]1(C)[C@@H]32`, the “fold change (FC)” value came out at 5.2 in series [1] and 2.7 in series [4]. For the same compound, the inhibition result in series [2] was “inactive”. Also, the Activity entry in series [3] is “Non-Toxic”.

As for `C/C=C(\C)C(=O)O[C@@H]1C[C@H](OC(C)=O)[C@]23CO[C@H](CO)[C@H]2[C@](C)([C@]24O[C@@]2(C)[C@H]2C[C@@H]4O[C@@H]4O[C@H](OCC)C[C@@]42O)[C@H](O)[C@@H]2OC[C@@]1(C(=O)OC)[C@H]23`, in series [2], the inhibition result is “inactive”. Also, the Activity result in series [3] is listed as “Non-Toxic”.

`C/C=C(\C)C(=O)O[C@H]1C[C@@H](OC(C)=O)[C@@]2(C)CO[C@H]3[C@@H](O)[C@@]4(C)C5=C(C)[C@H](C6=CCOC6=O)C[C@@H]5OCC[C@@H]4[C@]1(C)[C@@H]32`: in series [2], the inhibition result was “inactive”. Moreover, the Activity entry in series [3] is “Non-Toxic”.

For `C/C=C(\C)C(=O)O[C@H]1C[C@@H](OC(C)=O)[C@@]2(C)CO[C@H]3[C@H]4O[C@]5(C)[C@H]6C[C@H](O[C@@H]7OC=C[C@@]76O)[C@]5(O)[C@@]4(C)[C@H](C(=O)CO)[C@]1(C)[C@@H]32`, in series [2], the inhibition entry was “inactive”. The Activity result in series [3] is on record as “Non-Toxic”.

With `CC(=O)O[C@H]1C[C@@H](OC(C)=O)[C@@]2(C)CO[C@H]3[C@@H](O)[C@@]4(C)C5=CC[C@@H](c6ccoc6)[C@]5(C)OCC[C@@H]4[C@]1(C)[C@@H]32`, in series [2], the inhibition result was “inactive”. Moreover, the Activity result in series [3] is reported as “Non-Toxic”.

For `C/C=C(\C)C(=O)O[C@@H]1C[C@H](OC(C)=O)[C@]23CO[C@H](CO)[C@H]2[C@](C)([C@]24O[C@@]2(C)[C@H]2C[C@@H]4O[C@@H]4O[C@H](OC)C[C@@]42O)[C@H](O)[C@@H]2OC[C@@]1(C(=O)OC)[C@H]23`, the inhibition entry in series [2] was “inactive”. For the same compound, the Activity result in series [3] is “Non-Toxic”.

In the case of `C/C=C(\C)C(=O)O[C@H]1C[C@@H](OC(C)=O)[C@@]2(C)CO[C@H]3[C@@H](O)[C@]4(C)[C@H](C[C@@H]5O[C@H]6CC(c7ccoc7)=C(C)[C@@]64O5)[C@]1(C)[C@@H]32`, in series [2], the inhibition entry is “inactive”. Also, in series [3], the Activity result is given as “Non-Toxic”.

`COc1ccc(CCN(C)CCCC(C#N)(c2ccc(OC)c(OC)c2)C(C)C)cc1OC` (stereo not drawn) [VERAPAMIL]: the “fold change (FC)” value in series [4] is recorded as 9.2.

Consider `C/C=C(\C)C(=O)O[C@H]1C[C@@H](OC(C)=O)[C@@]2(C)CO[C@H]3[C@@H](O)[C@@]4(C)C5=C(C)[C@H](C6=CCOC6=O)C[C@@H]5O[C@@H](OC)C[C@@H]4[C@]1(C)[C@@H]32`, for which the inhibition entry in series [2] was “inactive”. In addition, the Activity result in series [3] was “Non-Toxic”.

Consider `C/C=C(\C)C(=O)O[C@H]1C[C@@H](OC(C)=O)[C@@]2(C)CO[C@H]3[C@H]4O[C@]5(C)[C@H]6C[C@H](O[C@@H]7O[C@@H](OC)C[C@@]76O)[C@]5(O)[C@@]4(C)[C@H](C(=O)CO)[C@]1(C)[C@@H]32`, for which the inhibition entry in series [2] is “inactive”. Besides, in series [3], the Activity entry is given as “Non-Toxic”.

`C/C=C(\C)C(=O)O[C@H]1C[C@@H](OC(C)=O)[C@@]2(C)CO[C@H]3[C@@H](O)[C@@]4(C)C5=C(C)[C@H](c6ccoc6)C[C@@H]5O[C@@H](OC)C[C@@H]4[C@]1(C)[C@@H]32`: the inhibition result in series [2] was “inactive”. In series [3], the Activity result was “Non-Toxic”.

As to `C/C=C(\C)C(=O)O[C@H]1C[C@@H](OC(C)=O)[C@@]2(C)CO[C@H]3[C@@H](O)[C@@](C)(C4=C(C)[C@H](c5ccoc5)CC4=O)[C@H](C(=O)CO)[C@]1(C)[C@@H]32`, the inhibition result in series [2] is “inactive”. Besides, in series [3], the Activity result was “Non-Toxic”.

Consider `CO[C@H]1C[C@H]2[C@](C)(C3=C(C)[C@H](c4ccoc4)C[C@@H]3O1)[C@H](O)[C@@H]1OC[C@]3(C)[C@H](OC(C)=O)C[C@H](OC(=O)c4ccccc4)[C@@]2(C)[C@@H]13`, for which the inhibition result in series [2] is “inactive”. Also, in series [3], the Activity entry is listed as “Non-Toxic”.

`CC(=O)O[C@@H]1C[C@H](OC(=O)c2ccccc2)[C@@]2(C)[C@H]3[C@@H](OC[C@]13C)[C@@H](O)[C@@]1(C)C3=C(C)[C@H](c4ccoc4)C[C@@H]3OCC[C@@H]12`: the inhibition entry in series [2] is “inactive”. The Activity result in series [3] is given as “Non-Toxic”.

`C/C=C(\C)C(=O)O[C@H]1C[C@@H](OC(C)=O)[C@@]2(C)CO[C@H]3[C@@H](O)[C@@]4(C)C5=C(C)[C@H](C6=CCOC6=O)C[C@@H]5O[C@@H](OCC)C[C@@H]4[C@]1(C)[C@@H]32`: the inhibition result in series [2] was “inactive”. For the same compound, in series [3], the Activity result is on record as “Non-Toxic”.

As for `CC(=O)O[C@H]1C[C@@H](OC(C)=O)[C@@]2(C)CO[C@H]3[C@@H](O)[C@@]4(C)C5=CC[C@@H](c6ccoc6)[C@]5(C)CC[C@@H]4[C@]1(C)[C@@H]32` [DIACETYLVILASININ], the “fold change (FC)” value in series [1] came out at 18.3; in series [4] it was 7.8. For the same compound, in series [2], the inhibition entry is “inactive”. Moreover, the Activity result in series [3] is on record as “Non-Toxic”.

Regarding `C/C=C(\C)C(=O)O[C@H]1C[C@@H](OC(C)=O)[C@@]2(C)CO[C@H]3[C@@H](O)[C@@]4(C)C5=C(C)[C@H](c6ccoc6)C[C@@H]5O[C@@H](OCC)C[C@@H]4[C@]1(C)[C@@H]32`, in series [2], the inhibition entry is “inactive”. In series [3], the Activity entry was “Non-Toxic”.

Turning to `C/C=C(\C)C(=O)O[C@@H]1C[C@H](OC(C)=O)[C@]23CO[C@H](CO)[C@H]2[C@](C)([C@]24O[C@@]2(C)[C@H]2C[C@@H]4O[C@@H]4O[C@H](OC)C[C@]42O)[C@H](O)[C@@H]2OC[C@@]1(C(=O)OC)[C@H]23`, in series [2], the inhibition entry is “inactive”. Moreover, the Activity result in series [3] is on record as “Non-Toxic”.

As for `C/C=C(\C)C(=O)O[C@H]1C[C@@H](OC(C)=O)[C@@]2(C)CO[C@H]3[C@@H](O)[C@@]4(C)C5=C(C)[C@H](c6ccoc6)C[C@@H]5O[C@@H](O)C[C@@H]4[C@]1(C)[C@@H]32`, the inhibition result in series [2] was “inactive”. Also, the Activity entry in series [3] is listed as “Non-Toxic”.

Turning to `CC(=O)OCC[C@H]1[C@]2(C)C3=C(C)[C@H](c4ccoc4)C[C@H]3O[C@@H]2[C@@H]2OC[C@]3(C)[C@H](OC(C)=O)C[C@H](OC(C)=O)[C@@]1(C)[C@@H]23`, in series [2], the inhibition entry is “inactive”. The Activity entry in series [3] is listed as “Non-Toxic”.

Take `CC(=O)O[C@H]1C[C@@H](OC(C)=O)[C@@]2(C)CO[C@H]3[C@@H](O)[C@@]4(C)C5=C(C)[C@H](c6ccoc6)C[C@@H]5OCC[C@@H]4[C@]1(C)[C@@H]32`: in series [2], the inhibition result was “inactive”. In addition, the Activity entry in series [3] was “Non-Toxic”.

Take `C/C=C(\C)C(=O)O[C@H]1C[C@@H](OC(C)=O)[C@@]2(C(=O)OC)CO[C@H]3[C@H]4O[C@]5(C)[C@H]6C[C@H](O[C@@H]7OC=C[C@@]76O)[C@]5(O)[C@@]4(C)[C@H](C(=O)CO)[C@]1(C)[C@@H]32`: the inhibition result in series [2] is “inactive”. Moreover, the Activity entry in series [3] is “Non-Toxic”.

For the compound `C/C=C(\C)C(=O)O[C@H]1C[C@@H](OC(C)=O)[C@@]2(C)CO[C@H]3[C@@H](O)[C@@]4(C)C5=CC[C@@H](c6ccoc6)[C@]5(C)OCC[C@@H]4[C@]1(C)[C@@H]32`, the inhibition entry in series [2] is “inactive”. In series [3], the Activity result is on record as “Non-Toxic”.

For the compound `C/C=C(\C)C(=O)O[C@H]1C[C@@H](OC(C)=O)[C@@]2(C)CO[C@H]3[C@@H](O)[C@@]4(C)C5=C(C)[C@H](c6ccoc6)C[C@@H]5O[C@H](OC)C[C@@H]4[C@]1(C)[C@@H]32`, the “fold change (FC)” value was 4.5 in series [1] and 3.4 in series [4]. Also, in series [2], the inhibition entry is “inactive”. Further, the Activity result in series [3] was “Non-Toxic”.
